Test results as given in EPA's ToxValDB 9.5 (doi:10.2903/j.efsa.2018.5146).
≈ marks a conversion by molar mass, not a printed value.

Assays:
[1] = chronic; duration: 133 days; other
Apis mellifera = conditions: acute, mortality
Folsomia candida = conditions: chronic/long-term; reproduction
Mus musculus = conditions: organ weight
Oncorhynchus mykiss = conditions: acute; duration: 96 hours; mortality
Rattus norvegicus = conditions: acute; oral; mortality
Tagia sp. = conditions: chronic/long-term; reproduction
Aphidius rhopalosiphi = experiment: LR50; higher = less toxic; conditions: acute; mortality

## COc1ccnc(C(=O)N[C@H]2COC(=O)[C@H](Cc3ccccc3)[C@@H](OC(=O)C(C)C)[C@H](C)OC2=O)c1OCOC(=O)C(C)C [Fenpicoxamid]
[1]
  NOEC: 0.0001 mg/L
Apis mellifera; dermal
  LD50: > 202 µg/piece
Apis mellifera; oral, unspecified
  LD50: > 303 µg/piece
Colinus virginianus; acute, oral, mortality
  LD50: > 2000 mg/kg-day
Colinus virginianus; reproduction developmental
  NOEC: 12.1 mg/kg-day
Folsomia candida
  NOEC: 3.97 mg/kg
Mus musculus; chronic, duration: 18 months
  NOAEL: 5.27 mg/kg-day
Mus musculus; subchronic, duration: 90 days, oral
  NOAEL: 39.6 mg/kg-day
Oncorhynchus mykiss
  LC50: 1.1 mg/L (≈ 1.79 µM)
Oryctolagus sp.; chronic, New Zealand, no effects
  NOAEL: 495 mg/kg-day
Oryctolagus sp.; reproduction developmental, reproduction
  NOAEL: 177 mg/kg-day
Rattus norvegicus
  LD50: > 2000 mg/kg-day
Tagia sp.
  NOEC: 9.93 mg/kg
Aphidius rhopalosiphi
  LR50: > 129 g/ha
